Results from patent publication US8865641B2, “Methods of treatment of fatty liver disease by pharmacological activation of cholinergic pathways” (priority 2011, dated 2014).

How the values were obtained:
Assay type in all cases: in vivo, C57BL/6J mice
[1] = system: mice with high-fat diet-induced obesity; experiment: Fatty liver manifestations (plasma ALT, liver weight, hepatic steatosis on H&E liver sections) in high-fat diet-fed mice; conditions: 4 mg/kg i.p. once daily for 4 weeks
Description: (§1) Experiments with male C57BL/6J mice (5-6 month old, Jackson Lab) were performed in accordance with the NIH Guidelines under protocols approved by the IACUC Committee of the Feinstein Institute for Medical Research, North Shore-LIJ Health System, Manhasset, N.Y., USA.
(§2) C57BL/6J mice were initially fed a regular chow for 10 days and then switched to a high-fat diet (D12492, 60% kcal from fat, shown in FIG. 2) or its corresponding low-fat control diet (D12450B, 10% kcal from fat, shown in FIG. 1) (Research Diets, New Brunswick, N.J.) for 12 weeks. After the first 8 weeks mice on the high-fat diet were divided into 2 groups and treated with saline (i.p. once daily) or galantamine (Galanthamine Hydrobromide, EMD Biosciences, Inc., La Jolla, Calif., USA) (4 mg/kg, i.p., once daily) for the remaining 4 weeks of the study. In parallel, mice on the low-fat (control) diet were treated with saline. Body weight and food intake were determined on a weekly basis by trained personnel of the Center for Comparative Physiology at the Feinstein Institute, who were blinded to treatment groups. At the end of the experimental time period mice were euthanized and abdominal adiposity, liver weight, cytokine and adipokine levels, metabolic profile, insulin resistance, and liver histology were evaluated. In a separate experiment, groups of mice were fed and treated and body weights and food intake recorded as described above. […]
(§3) Plasma samples were sent to Millipore and plasma insulin, leptin, MCP-1, PAI-1, resistin, TNF and IL-6 levels were determined by using the Millipore's MILLIPLEX map mouse adipokine panel assay with the following detection sensitivity limits: leptin 16.71 pg/mL; resistin 1.79 pg/mL; IL-6 1.89 pg/mL; TNF 4.39 pg/mL; MCP-1 14.4 pg/mL; PAI-1 16.4 pg/mL, insulin 42.2 pg/mL. Plasma samples were sent to IDEXX and plasma levels of total cholesterol and ALT were determined by using IDEXX's Olympus analyzers and spectrophotometric determination. Plasma adiponectin was measured by using the mouse adiponectin/Acrp30 immunoassay (R&D Systems) according to the manufacturer's recommendations.
Formalin fixed liver tissue was imbedded in paraffin, sliced and then liver tissue sections were subjected to hematoxylin and eosin (H&E) staining and microscopic slides prepared. Hepatic steatosis was determined by microscopic evaluation of H&E stained liver sections for lipid accumulation by using Zeiss apotome and semi-quantified by applying a previously implemented grading criteria: no fat accumulation (grade 0); less than 33% fat-containing hepatocytes (grade 1); less than 66% fat-containing hepatocytes (grade 2); more than 66% fat-containing hepatocytes (grade 3).

[2] = system: mice with high-fat diet-induced obesity; experiment: Body weight, food intake and abdominal adiposity in high-fat diet-fed mice; conditions: for body weight: 4 mg/kg i.p. once daily, FIG. 3A
Description: as §1
(§4) C57BL/6J mice were initially fed a regular chow for 10 days and then switched to a high-fat diet (D12492, 60% kcal from fat, shown in FIG. 2) or its corresponding low-fat control diet (D12450B, 10% kcal from fat, shown in FIG. 1) (Research Diets, New Brunswick, N.J.) for 12 weeks. After the first 8 weeks mice on the high-fat diet were divided into 2 groups and treated with saline (i.p. once daily) or galantamine (Galanthamine Hydrobromide, EMD Biosciences, Inc., La Jolla, Calif., USA) (4 mg/kg, i.p., once daily) for the remaining 4 weeks of the study. In parallel, mice on the low-fat (control) diet were treated with saline. Body weight and food intake were determined on a weekly basis by trained personnel of the Center for Comparative Physiology at the Feinstein Institute, who were blinded to treatment groups. At the end of the experimental time period mice were euthanized and abdominal adiposity, liver weight, cytokine and adipokine levels, metabolic profile, insulin resistance, and liver histology were evaluated. In a separate experiment, groups of mice were fed and treated and body weights and food intake recorded as described above. At the end of the experimental time period mice were subjected to the insulin sensitivity test or the glucose tolerance test as described below.
(§5) After an overnight fast and following body weight and blood glucose determination mice were euthanized by CO2 asphyxiation. Heparinized blood was obtained by cardiac puncture and centrifuged within 30 min at 5,000 rpm for 10 min. Visceral adipose tissues and liver were harvested, rinsed with saline, and weighed. One piece of liver (the biggest lobe) was fixed in formalin for further H&E staining. Plasma and visceral fats (were frozen on dry ice) were transferred at −20° C. prior to further manipulations.

[3] = system: mice with high-fat diet-induced obesity; experiment: Plasma cytokine/adipokine levels in high-fat diet-fed mice (MILLIPLEX mouse adipokine panel; adiponectin immunoassay); conditions: 4 mg/kg i.p. once daily for 4 weeks
Description: as §4, §5, §3

[4] = system: mice with high-fat diet-induced obesity; experiment: Fasting blood glucose, plasma insulin, HOMA-IR and plasma total cholesterol in high-fat diet-fed mice; conditions: 4 mg/kg i.p. once daily for 4 weeks, HFD-G vs HFD-S mice
Description: as §4
Blood glucose during the study was measured by nicking the tails and using the Contour blood glucose meter (Bayer, Elkhart, Ind.) with Contour blood glucose test strips according to the manufacturer's recommendations. After blood collection the cuts were compressed with sterile gauze until bleeding termination.
as §3
Insulin resistance was evaluated by using glucose and insulin level values and by applying the homeostatic model assessment-insulin resistance (HOMA-IR) formula, presented in Mlinar et al. (2007) Molecular mechanisms of insulin resistance and associated diseases. Clin Chim Acta 375:20-35, the relevant teachings of which is incorporated herein by reference. Specifically, the expression used to evaluate insulin resistance is: HOMA index=insulin (mU/L)×[glucose (mmol/L)/22.5] […]

[5] = system: mice with high-fat diet-induced obesity; experiment: Separate experiment: body weight and food intake in high-fat diet-fed mice before IST and GTT; conditions: 4 mg/kg i.p. once daily for 4 weeks
Description: as §2
Separate groups of mice were fed and treated and body weights and food intake recorded as described above (in Experimental design). […]

[6] = system: mice with high-fat diet-induced obesity; experiment: Insulin sensitivity test (IST) in high-fat diet-fed mice
Description: (§6) Separate groups of mice were fed and treated and body weights and food intake recorded as described above (in Experimental design). At the end of the 12 week period, mice from the three experimental groups were used in the insulin sensitivity and glucose tolerance tests. In the insulin sensitivity test, after an overnight (18 hours) fast, mice (n=10 per group) were weighed and administered i.p. with insulin (Humulin R, Lilly, 0.5 units/kg). In the glucose tolerance test, after an overnight (21 hours) fast, mice (n=10 per group) were weighed and injected i.p. with glucose (10% D glucose solution, Sigma, 1 g/kg). Glucose levels were determined at 0, 15, 30, 60, and 120 min after insulin or glucose administration in blood from the tail vein by using the Contour blood glucose meter (Bayer, Elkhart, Ind.) with Contour blood glucose test strips.

[7] = system: mice with high-fat diet-induced obesity; experiment: Glucose tolerance test (GTT) in high-fat diet-fed mice; conditions: HFD-G as compared to HFD-S mice
Description: as §6

[8] = 4 mg/kg i.p. once daily for 4 weeks, HFD-G group, Table 1 in FIG. 4

COc1ccc2c3c1O[C@H]1C[C@@H](O)C=C[C@@]31CCN(C)C2 [galantamine]
hepatocyte fat accumulation (steatosis), microscopic observations ([1]; HFD-G mice, H&E liver sections, FIG. 9): decreased lipid accumulation | liver weight ([1]; HFD-G vs HFD-S mice, FIG. 7B): significant liver weight decrease | plasma alanine aminotransferase (ALT) levels ([1]; HFD-G vs HFD-S mice, end of 12 week study, FIG. 7A): significantly decreased | lipid accumulation in livers, semi-quantitative analysis ([1]; HFD-G vs HFD-S mice, steatosis grade 0-3, FIG. 10): significantly reduced | mesenteric adipose tissue weight [2, 8]: significantly reduced | retroperitoneal/perirenal adipose tissue weight [2, 8]: significantly reduced | food intake ([2]; 4 mg/kg i.p. once daily for 4 weeks, HFD-G vs HFD-S group during treatment, FIG. 3B): additional suppression of food intake | body weight ([2]; HFD-G mice at week 9 as compared to week 8, then sustained): lower after the first week of treatment | body weight ([2]; HFD-G vs HFD-S mice at weeks 11 and 12): lower than the weight of HFD-S mice | plasma TNF levels ([3]; HFD-G group, no value above the assay sensitivity limit): < 4.39 pg/mL | plasma MCP-1 levels ([3]; HFD-G mice, FIG. 5C): significantly reduced | plasma IL-6 levels ([3]; HFD-G vs HFD-S mice, FIG. 5A): significantly reduced | plasma leptin levels ([3]; HFD-G vs HFD-S mice, FIG. 5B): significantly reduced | plasma resistin levels ([3]; HFD-G vs HFD-S mice, FIG. 5D): significantly lowered | plasma adiponectin levels ([3]; HFD-G vs HFD-S mice, FIG. 5F): a certain increase | plasma plasminogen activator inhibitor-1 (PAI-1) levels ([3]; HFD-S higher than LFD-S and HFD-G mice, FIG. 5E): none of these differences were statistically significant | fasting blood glucose levels ([4]; FIG. 6A): significantly reduced | plasma insulin levels ([4]; FIG. 6B): significantly reduced | plasma total cholesterol levels ([4]; FIG. 6D): significantly decreased | insulin resistance (HOMA-IR) ([4]; calculated from glucose and insulin, FIG. 6C): reversed this insulin resistance | body weight ([5]; HFD-G mice, while HFD-S continued to increase, FIG. 11A): decreased | food intake ([5]; HFD-G vs HFD-S group, FIG. 11B): significantly lower | blood glucose levels in IST at 15 min and 30 min ([6]; HFD-G as compared to HFD-S mice, insulin 0.5 units/kg i.p. after overnight fast): significantly lower | blood glucose levels in IST at 120 min ([6]; HFD-G as compared to LFD-S mice, insulin 0.5 units/kg i.p. after overnight fast): significantly lower | time of lowest blood glucose levels in IST ([6]; HFD-G mice after insulin 0.5 units/kg i.p., unchanged at 60 min, increased at 120 min, FIG. 12): 30 min | area under the curve of the GTT data ([7]; FIG. 13B): significantly lower | blood glucose levels in GTT ([7]; glucose 1 g/kg i.p. after overnight fast, FIG. 13A): suppressed blood glucose levels
